Assays:
Assay in all cases: relative viability (nuclei count vs DMSO), 5 days (fraction); higher = more cells survive
BEN = tested on: BEN
How it was run: (§1)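 Relative viability is defined as nuclei in treated wells over nuclei in vehicle wells. Duplicate plates were run and medians reported. Lung cancer cell lines in 1536-well plates were dosed by pin tool one day after seeding, with one drug or with a fixed anchor-drug dose plus five library-drug doses (not always all listed) in √10 steps, and nuclei were counted after 5 days.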

EKVX = tested on: EKVX
How it was run: as §1

HARA = tested on: HARA
How it was run: as §1

HCC-366 = tested on: HCC-366
How it was run: as §1

HCC-44 = tested on: HCC-44
How it was run: as §1

HCC-827 = tested on: HCC-827
How it was run: as §1

LC-2-ad = tested on: LC-2-ad
How it was run: as §1

LOU-NH91 = tested on: LOU-NH91
How it was run: as §1

NCI-H1355 = tested on: NCI-H1355
How it was run: as §1

NCI-H1395 = tested on: NCI-H1395
How it was run: as §1

NCI-H1437 = tested on: NCI-H1437
How it was run: as §1

NCI-H1734 = tested on: NCI-H1734
How it was run: as §1

NCI-H1792 = tested on: NCI-H1792
How it was run: as §1

NCI-H2009 = tested on: NCI-H2009
How it was run: as §1

NCI-H2087 = tested on: NCI-H2087
How it was run: as §1

NCI-H2170 = tested on: NCI-H2170
How it was run: as §1

NCI-H2228 = tested on: NCI-H2228
How it was run: as §1

NCI-H2405 = tested on: NCI-H2405
How it was run: as §1

NCI-H596 = tested on: NCI-H596
How it was run: as §1

NCI-H647 = tested on: NCI-H647
How it was run: as §1

SK-LU-1 = tested on: SK-LU-1
How it was run: as §1

SK-MES-1 = tested on: SK-MES-1
How it was run: as §1

SMILES: COc1cc(N2CCC(C(N)=O)CC2)ccc1Nc1nc(N)c(Cl)c(Nc2ccccc2S(=O)(=O)C(C)C)n1 [HG-5-88-01] + CC1(C)CCC(c2ccc(Cl)cc2)=C(CN2CCN(c3ccc(C(=O)NS(=O)(=O)c4ccc(N[C@H](CCN5CCOCC5)CSc5ccccc5)c(S(=O)(=O)C(F)(F)F)c4)cc3)CC2)C1 [Navitoclax] (partner 0.5 µM)
- relative viability (BEN; first compound 0.04 µM): 0.0887
- relative viability (BEN; first compound 0.1265 µM): 0.0551
- relative viability (BEN; first compound 0.4 µM): 0.0596
- relative viability (BEN; first compound 1.265 µM): 0.0568
- relative viability (BEN; first compound 4 µM): 0.0605
- relative viability (EKVX; first compound 0.04 µM): 1.03
- relative viability (EKVX; first compound 0.1265 µM): 0.952
- relative viability (EKVX; first compound 0.4 µM): 0.634
- relative viability (EKVX; first compound 4 µM): 0.839
- relative viability (HARA; first compound 0.04 µM): 1.16
- relative viability (HARA; first compound 0.1265 µM): 1.14
- relative viability (HARA; first compound 0.4 µM): 1.13
- relative viability (HARA; first compound 1.265 µM): 1.19
- relative viability (HARA; first compound 4 µM): 1.18
- relative viability (HCC-366; first compound 0.04 µM): 0.952
- relative viability (HCC-366; first compound 0.1265 µM): 1.04
- relative viability (HCC-366; first compound 0.4 µM): 0.79
- relative viability (HCC-366; first compound 1.265 µM): 1.02
- relative viability (HCC-366; first compound 4 µM): 1.29
- relative viability (HCC-44; first compound 0.04 µM): 1.07
- relative viability (HCC-44; first compound 0.1265 µM): 1.03
- relative viability (HCC-44; first compound 0.4 µM): 0.77
- relative viability (HCC-44; first compound 1.265 µM): 0.922
- relative viability (HCC-44; first compound 4 µM): 0.846
- relative viability (HCC-827; first compound 0.04 µM): 0.997
- relative viability (HCC-827; first compound 0.1265 µM): 1.04
- relative viability (HCC-827; first compound 0.4 µM): 1.03
- relative viability (HCC-827; first compound 1.265 µM): 1.02
- relative viability (HCC-827; first compound 4 µM): 0.723
- relative viability (LC-2-ad; first compound 0.04 µM): 0.444
- relative viability (LC-2-ad; first compound 0.1265 µM): 0.45
- relative viability (LC-2-ad; first compound 0.4 µM): 0.477
- relative viability (LC-2-ad; first compound 1.265 µM): 0.379
- relative viability (LC-2-ad; first compound 4 µM): 0.278
- relative viability (LOU-NH91; first compound 0.04 µM): 0.72
- relative viability (LOU-NH91; first compound 0.1265 µM): 0.693
- relative viability (LOU-NH91; first compound 0.4 µM): 0.605
- relative viability (LOU-NH91; first compound 1.265 µM): 0.378
- relative viability (LOU-NH91; first compound 4 µM): 0.468
- relative viability (NCI-H1355; first compound 0.04 µM): 1.01
- relative viability (NCI-H1355; first compound 0.1265 µM): 1.08
- relative viability (NCI-H1355; first compound 0.4 µM): 0.959
- relative viability (NCI-H1355; first compound 1.265 µM): 0.789
- relative viability (NCI-H1355; first compound 4 µM): 0.841
- relative viability (NCI-H1395; first compound 0.04 µM): 1.08
- relative viability (NCI-H1395; first compound 0.1265 µM): 1.18
- relative viability (NCI-H1395; first compound 0.4 µM): 1.25
- relative viability (NCI-H1395; first compound 1.265 µM): 1.03
- relative viability (NCI-H1395; first compound 4 µM): 1.09
- relative viability (NCI-H1437; first compound 0.04 µM): 1.1
- relative viability (NCI-H1437; first compound 0.1265 µM): 1.11
- relative viability (NCI-H1437; first compound 0.4 µM): 1.05
- relative viability (NCI-H1437; first compound 1.265 µM): 1.04
- relative viability (NCI-H1437; first compound 4 µM): 1.02
- relative viability (NCI-H1734; first compound 0.04 µM): 0.771
- relative viability (NCI-H1734; first compound 0.1265 µM): 0.858
- relative viability (NCI-H1734; first compound 0.4 µM): 0.943
- relative viability (NCI-H1734; first compound 1.265 µM): 0.827
- relative viability (NCI-H1734; first compound 4 µM): 0.757
- relative viability (NCI-H1792; first compound 0.04 µM): 0.685
- relative viability (NCI-H1792; first compound 0.1265 µM): 0.614
- relative viability (NCI-H1792; first compound 0.4 µM): 0.578
- relative viability (NCI-H1792; first compound 1.265 µM): 0.685
- relative viability (NCI-H1792; first compound 4 µM): 0.738
- relative viability (NCI-H2009; first compound 0.04 µM): 1.2
- relative viability (NCI-H2009; first compound 0.1265 µM): 1.32
- relative viability (NCI-H2009; first compound 0.4 µM): 1.15
- relative viability (NCI-H2009; first compound 1.265 µM): 1.06
- relative viability (NCI-H2009; first compound 4 µM): 1.15
- relative viability (NCI-H2087; first compound 0.04 µM): 0.902
- relative viability (NCI-H2087; first compound 0.1265 µM): 1.06
- relative viability (NCI-H2087; first compound 0.4 µM): 1.03
- relative viability (NCI-H2087; first compound 1.265 µM): 0.971
- relative viability (NCI-H2087; first compound 4 µM): 0.943
- relative viability (NCI-H2170; first compound 0.04 µM): 0.554
- relative viability (NCI-H2170; first compound 0.1265 µM): 0.574
- relative viability (NCI-H2170; first compound 0.4 µM): 0.674
- relative viability (NCI-H2170; first compound 1.265 µM): 0.311
- relative viability (NCI-H2170; first compound 4 µM): 0.73
- relative viability (NCI-H2228; first compound 0.04 µM): 0.65
- relative viability (NCI-H2228; first compound 0.1265 µM): 0.295
- relative viability (NCI-H2228; first compound 0.4 µM): 0.485
- relative viability (NCI-H2228; first compound 1.265 µM): 0.417
- relative viability (NCI-H2228; first compound 4 µM): 0.27
- relative viability (NCI-H2405; first compound 0.04 µM): 0.99
- relative viability (NCI-H2405; first compound 0.1265 µM): 1.03
- relative viability (NCI-H2405; first compound 0.4 µM): 0.825
- relative viability (NCI-H2405; first compound 1.265 µM): 0.319
- relative viability (NCI-H2405; first compound 4 µM): 0.784
- relative viability (NCI-H596; first compound 0.04 µM): 0.943
- relative viability (NCI-H596; first compound 0.1265 µM): 0.98
- relative viability (NCI-H596; first compound 0.4 µM): 1.06
- relative viability (NCI-H596; first compound 1.265 µM): 1.02
- relative viability (NCI-H596; first compound 4 µM): 0.901
- relative viability (NCI-H647; first compound 0.04 µM): 1.19
- relative viability (NCI-H647; first compound 0.1265 µM): 1.26
- relative viability (NCI-H647; first compound 0.4 µM): 1.24
- relative viability (NCI-H647; first compound 1.265 µM): 1.27
- relative viability (NCI-H647; first compound 4 µM): 1.13
- relative viability (SK-LU-1; first compound 0.04 µM): 0.997
- relative viability (SK-LU-1; first compound 0.1265 µM): 0.99
- relative viability (SK-LU-1; first compound 0.4 µM): 0.791
- relative viability (SK-LU-1; first compound 1.265 µM): 0.98
- relative viability (SK-LU-1; first compound 4 µM): 0.791
- relative viability (SK-MES-1; first compound 0.04 µM): 1.17
- relative viability (SK-MES-1; first compound 0.1265 µM): 1.29
- relative viability (SK-MES-1; first compound 0.4 µM): 1.2
- relative viability (SK-MES-1; first compound 1.265 µM): 1.21
- relative viability (SK-MES-1; first compound 4 µM): 1.03

— the supplement of paper PMC10307832
